Consider 44 molecules from patent US20250152585A1, “PHARMACEUTICAL COMPOUND” (Duke Street Bio Limited, priority 2022, published 2025).

Test [1] concerns the target T1, full length N-terminally FLAG-tagged PARP1 (Homo sapiens, UniProt P09874). In words: PARP1 probe displacement HTRF assay. As to conditions: for Kd: binned Kd, PARP1 probe displacement HTRF; for Selectivity: PARP1 over PARP2, ratio Kd (PARP2)/Kd (PARP1), probe displacement HTRF.
In test [2] the target is T1, full length N-terminally FLAG-tagged PARP1. In words: PARP1 biochemical DELFIA assay (auto-PARylation). Also on record: recombinant full length human N-terminally FLAG-tagged PARP1. As to conditions: binned IC50, PARP1 biochemical DELFIA assay.
For test [3], the target named is T2, N-terminally FLAG-tagged PARP2 (amino acids 1-583) (Homo sapiens, UniProt Q9UGN5).
T2 construct: N-terminally FLAG-tagged PARP2 (amino acids 1-583)
T2 sequence (Q9UGN5 whole entry, the tested form may be a part): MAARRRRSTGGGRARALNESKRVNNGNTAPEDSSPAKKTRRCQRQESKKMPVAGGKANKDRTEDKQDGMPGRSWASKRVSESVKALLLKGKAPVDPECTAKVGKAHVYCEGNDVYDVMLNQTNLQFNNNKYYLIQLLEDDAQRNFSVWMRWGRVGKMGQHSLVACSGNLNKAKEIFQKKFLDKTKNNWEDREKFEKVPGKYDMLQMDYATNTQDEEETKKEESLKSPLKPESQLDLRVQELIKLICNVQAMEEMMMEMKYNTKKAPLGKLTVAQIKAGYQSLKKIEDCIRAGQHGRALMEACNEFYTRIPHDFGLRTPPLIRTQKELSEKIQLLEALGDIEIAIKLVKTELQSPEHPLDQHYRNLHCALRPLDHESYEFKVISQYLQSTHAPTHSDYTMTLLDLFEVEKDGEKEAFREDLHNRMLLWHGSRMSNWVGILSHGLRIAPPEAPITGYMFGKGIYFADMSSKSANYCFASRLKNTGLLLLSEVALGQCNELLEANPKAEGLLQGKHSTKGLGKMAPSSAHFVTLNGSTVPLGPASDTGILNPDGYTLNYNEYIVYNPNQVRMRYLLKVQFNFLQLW
Nature of the test: PARP2 probe displacement HTRF assay. The format is binding. The following applies: binned Kd, PARP2 probe displacement HTRF. How it is done:
Data analysis was performed identical as for PARP1.
For orientation: TR-FRET usually uses a lanthanide donor and a delayed reading to cut background.

Read-outs that look alike come from different tables or passages of the source.

T1 sequence (P09874 whole entry): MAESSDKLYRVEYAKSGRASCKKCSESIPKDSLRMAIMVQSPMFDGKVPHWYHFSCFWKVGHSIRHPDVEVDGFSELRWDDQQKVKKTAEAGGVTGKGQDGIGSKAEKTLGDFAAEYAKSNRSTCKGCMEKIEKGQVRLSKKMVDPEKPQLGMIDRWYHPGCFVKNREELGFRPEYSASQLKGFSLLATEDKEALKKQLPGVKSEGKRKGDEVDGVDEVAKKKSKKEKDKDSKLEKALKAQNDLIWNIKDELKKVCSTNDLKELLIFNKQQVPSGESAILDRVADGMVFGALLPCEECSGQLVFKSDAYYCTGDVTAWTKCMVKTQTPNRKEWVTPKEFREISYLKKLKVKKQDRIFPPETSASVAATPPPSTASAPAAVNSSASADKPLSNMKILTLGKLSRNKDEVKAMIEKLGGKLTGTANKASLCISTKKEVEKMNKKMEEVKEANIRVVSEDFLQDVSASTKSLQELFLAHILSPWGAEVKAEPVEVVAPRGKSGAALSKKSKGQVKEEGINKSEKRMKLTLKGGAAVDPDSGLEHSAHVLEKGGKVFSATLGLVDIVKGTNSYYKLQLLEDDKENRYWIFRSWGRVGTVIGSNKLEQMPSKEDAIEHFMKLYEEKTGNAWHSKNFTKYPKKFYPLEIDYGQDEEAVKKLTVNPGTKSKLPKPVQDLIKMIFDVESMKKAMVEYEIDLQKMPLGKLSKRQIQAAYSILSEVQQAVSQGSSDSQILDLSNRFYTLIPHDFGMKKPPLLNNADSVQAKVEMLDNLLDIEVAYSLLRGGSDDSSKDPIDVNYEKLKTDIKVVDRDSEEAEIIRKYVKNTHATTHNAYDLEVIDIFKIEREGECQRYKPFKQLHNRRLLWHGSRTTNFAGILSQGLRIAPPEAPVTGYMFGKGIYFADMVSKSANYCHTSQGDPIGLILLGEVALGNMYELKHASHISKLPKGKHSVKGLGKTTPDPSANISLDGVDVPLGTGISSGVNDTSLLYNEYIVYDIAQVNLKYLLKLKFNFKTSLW

Usually IC50 stands for the concentration that gives 50% inhibition. With `CNC(=O)c1ccc(N2CCC(N3CCC(c4nc5ccccc5c(=O)[nH]4)C3)CC2)cn1` (racemic) [Compound 10rac], the Kd in test [1] (PARP1 HTRF) is less than 0.01 µM; in test [3], 0.1 to 1 µM. In addition, the Selectivity entry in test [1] is given as “+++ (+++ indicate a value of at least 100)”. The IC50 in test [2] is less than 0.01 µM.
Consider `CCc1cnc(C2CCCN(CC3CCN(c4ccc(C(=O)NC)nc4)CC3)C2)[nH]c1=O` (racemic) [Compound 39rac], for which the Selectivity result in test [1] is on record as “+ (+ indicates a value of 10 to less than 50)”. For the same molecule, the Kd in test [1] (read-out: PARP1 HTRF) was 0.1 to 1 µM; in test [3], greater than 10 µM. In test [2], the IC50 is 0.1 to 1 µM.
With `CCc1cnc(C2CCN(C3CCN(c4ccc(C(=O)NC)nc4)CC3)C2)[nH]c1=O` (racemic) [Compound 42rac], the Kd is less than 0.01 µM in test [1] (PARP1 HTRF) and 1 to 10 µM in test [3]. The Selectivity result in test [1] is “+++ (+++ indicate a value of at least 100)”. Moreover, in test [2], the IC50 is less than 0.01 µM.
As for `CNC(=O)c1ccc(N2CCC(N3CCC(c4nc5ccc(Cl)cc5c(=O)[nH]4)C3)CC2)cn1` (racemic) [Compound 49rac], the Selectivity result in test [1] is reported as “+++ (+++ indicate a value of at least 100)”. In addition, the results for the Kd in test [1] (read-out: PARP1 HTRF) and in test [3] were less than 0.01 µM and 0.1 to 1 µM, respectively. Also, the IC50 in test [2] is less than 0.01 µM.
On to `CNC(=O)c1ccc(F)c(N2CCC(N3CCCC(c4nc5ccccc5c(=O)[nH]4)C3)CC2)n1` (racemic) [Compound 95rac], for which the Selectivity entry in test [1] is “− (− indicates a value of less than 10)”. The Kd in test [1] (read-out: PARP1 HTRF) and in test [3] was 1 to 10 µM in each case. Further, in test [2], the IC50 was in the range of 0.1 to 1 µM.
For the molecule `CNC(=O)c1ccc(N2CCC(N3CCCC(c4nc5ccccc5c(=O)[nH]4)CC3)CC2)cn1` (racemic) [Compound 102rac], the Selectivity result in test [1] is recorded as “+++ (+++ indicate a value of at least 100)”. Moreover, the Kd in test [1] (read-out: PARP1 HTRF) was less than 0.01 µM; in test [3], 1 to 10 µM. The IC50 in test [2] is less than 0.01 µM.
With `O=c1[nH]c(C2CCCN(C3CCC(F)(F)CC3)C2)nc2ccccc12` (single isomer, unassigned) [Compound 3a], the IC50 in test [2] fell in the range of 0.1 to 1 µM.
Regarding `O=c1[nH]c(C2CCCN(C3CCC(F)(F)CC3)C2)nc2ccccc12` (single isomer, unassigned) [Compound 3b], in test [2], the IC50 lay in the range of 0.1 to 1 µM.
Still for that read-out and setting: the same measure for `O=c1[nH]c(C2CCN(C3CCC(F)(F)CC3)C2)nc2ccccc12` (single isomer, unassigned) [Compound 4b]: 0.1 to 1 µM; for `CNC(=O)c1ccc(OCCCN2CCCC(c3nc4ccccc4c(=O)[nH]3)C2)cn1` (single isomer, unassigned) [Compound 7b]: 0.1 to 1 µM; for `CNC(=O)c1ccc(N(C)CCN2CCCC(Cc3nc4ccccc4c(=O)[nH]3)C2)cn1` (single isomer, unassigned) [Compound 13a]: 1 to 10 µM.
With `CNC(=O)c1ccc(OCCN2CCCC(Cc3nc4ccccc4c(=O)[nH]3)C2)cn1` (single isomer, unassigned) [Compound 14a, N-methyl-5-(2-(3-((4-oxo-3,4-dihydroquinazolin-2-yl)methyl)piperidin-1-yl)ethoxy)picolinamide], in test [2], the IC50 was 1 to 10 µM.
As to `CNC(=O)c1ccc(N(C)CCCN2CCCC(c3nc4ccccc4c(=O)[nH]3)C2)cn1` (single isomer, unassigned) [Compound 16a], the IC50 in test [2] fell in the range of 0.1 to 1 µM.
For the molecule `CNC(=O)c1ccc(N(C)CCCN2CCCC(c3nc4ccccc4c(=O)[nH]3)C2)cn1` (single isomer, unassigned) [Compound 16b], in test [2], the IC50 is 0.1 to 1 µM.
Still for that read-out and setting: the same measure for `CNC(=O)c1ccc(N2CC(N3CCCC(c4nc5ccccc5c(=O)[nH]4)C3)C2)cn1` (single isomer, unassigned) [Compound 23a]: 0.1 to 1 µM.
For `CCc1cnc(C2CCCN(C3CCC(F)(F)CC3)C2)[nH]c1=O` (single isomer, unassigned) [Compound 24a], the IC50 in test [2] was in the range of 1 to 10 µM.
For the molecule `CCc1cnc(C2CCCN(C3CCC(F)(F)CC3)C2)[nH]c1=O` (single isomer, unassigned) [Compound 24b], the IC50 in test [2] was in the range of 1 to 10 µM.
As for `CCc1cnc(C2CCCN(C3CCN(c4ccc(C(=O)NC)nc4)CC3)C2)[nH]c1=O` (single isomer, unassigned) [Compound 31a], in test [2], the 50% inhibitory concentration (IC50) was in the range of 1 to 10 µM.
With `O=c1[nH]c(C2CCN(C3CCN(c4ccccc4)CC3)C2)nc2ccccc12` (single isomer, unassigned) [Compound 32b], the IC50 in test [2] fell in the range of 0.1 to 1 µM.
In the case of `CNC(=O)c1ccc(N2CCC(N3CCCC(c4ncc(C)c(=O)[nH]4)C3)CC2)cn1` (single isomer, unassigned) [Compound 33a], the IC50 in test [2] was greater than 10 µM.
In the case of `CNC(=O)c1ccc(N2CCC(N3CCC(c4ncc(C)c(=O)[nH]4)C3)CC2)cn1` (single isomer, unassigned) [Compound 35a], the IC50 in test [2] lay within 0.1 to 1 µM.
As to `CNC(=O)c1ccc(N2CCC(N3CCC(c4nc5cc(Cl)ccc5c(=O)[nH]4)C3)CC2)cn1` (single isomer, unassigned) [Compound 87b], the Selectivity entry in test [1] is “+++ (+++ indicate a value of at least 100)”. In addition, the figures for the Kd in test [1] (read-out: PARP1 HTRF) and in test [3] were less than 0.01 µM and 1 to 10 µM, respectively.
In the case of `CNC(=O)c1ccc(N2CCC(N3CCCC(c4nc5cccc(F)c5c(=O)[nH]4)C3)CC2)cn1` (single isomer, unassigned) [Compound 88a], the Selectivity entry in test [1] is “− (− indicates a value of less than 10)”. The Kd in test [1] (read-out: PARP1 HTRF) and in test [3] was 0.1 to 1 µM in each case.
With `CNC(=O)c1ccc(N2CCC(N3CCCC(c4nc5cccc(F)c5c(=O)[nH]4)C3)CC2)cn1` (single isomer, unassigned) [Compound 88b], in test [1], the Selectivity result is “+++ (+++ indicate a value of at least 100)”. The Kd in test [1] (read-out: PARP1 HTRF) is less than 0.01 µM; in test [3], 1 to 10 µM.
On to `CNC(=O)c1ccc(N2CCC(N3CCCC(c4nc5cccnc5c(=O)[nH]4)C3)CC2)cn1` (single isomer, unassigned) [Compound 89a], for which the Selectivity result in test [1] is on record as “− (− indicates a value of less than 10)”. Also, the Kd in test [1] (read-out: PARP1 HTRF) and in test [3] was greater than 10 µM throughout.
As for `CNC(=O)c1ccc(N2CCC(N3CCCC(c4nc5cccnc5c(=O)[nH]4)C3)CC2)cn1` (single isomer, unassigned) [Compound 89b], in test [1], the Selectivity entry was “+ (+ indicates a value of 10 to less than 50)”. Also, the values for the Kd in test [1] (read-out: PARP1 HTRF) and in test [3] were 0.1 to 1 µM and greater than 10 µM, respectively.
As to `CNC(=O)c1ccc(N2CCC(N3CCC4CC4(c4nc5ccccc5c(=O)[nH]4)C3)CC2)cn1` (single isomer, unassigned) [Compound 90a], the Selectivity result in test [1] is on record as “+ (+ indicates a value of 10 to less than 50)”. The Kd was 0.1 to 1 µM in test [1] (read-out: PARP1 HTRF) and greater than 10 µM in test [3].
For `CNC(=O)c1ccc(N2CCC(N3CCC4CC4(c4nc5ccccc5c(=O)[nH]4)C3)CC2)cn1` (single isomer, unassigned) [Compound 90b], in that order: “+ (+ indicates a value of 10 to less than 50)”, 0.1 to 1 µM and 1 to 10 µM.
Take `CNC(=O)c1ccc(N2CCC(N3CCC(c4nc5c(C(F)(F)F)cccc5c(=O)[nH]4)C3)CC2)cn1` (single isomer, unassigned) [Compound 178a]: the Selectivity entry in test [1] is “− (− indicates a value of less than 10)”. Besides, the Kd was 0.1 to 1 µM in test [1] (read-out: PARP1 HTRF) and 1 to 10 µM in test [3].
For the molecule `CNC(=O)c1ccc(N2CCC(N3CCC(c4nc5c(C(F)(F)F)cccc5c(=O)[nH]4)C3)CC2)cn1` (single isomer, unassigned) [Compound 178b], the Selectivity entry in test [1] is given as “+++ (+++ indicate a value of at least 100)”. In addition, the results for the Kd in test [1] (read-out: PARP1 HTRF) and in test [3] were less than 0.01 µM and 1 to 10 µM, respectively.
With `CNC(=O)c1ccc(N2CCC(N3CCC(c4nc5ccccc5c(=O)[nH]4)CC3)CC2)cn1` [Compound 1], the half-maximal inhibitory concentration (IC50) in test [2] is 0.1 to 1 µM.
For `CNC(=O)c1ccc(N2CCC(c3nc4ccccc4c(=O)[nH]3)CC2)cn1` [Compound 5], the IC50 in test [2] fell in the range of 1 to 10 µM.
In the case of `CNC(=O)c1ccc(N(C)CCCN2CCC(c3nc4ccccc4c(=O)[nH]3)CC2)cn1` [Compound 12], the IC50 in test [2] fell in the range of 0.1 to 1 µM.
Same read-out and setting: the same measure for `CNC(=O)c1ccc(N2CCC(n3ccc(-c4nc5ccccc5c(=O)[nH]4)n3)CC2)cn1` [Compound 15]: 0.1 to 1 µM; for `CNC(=O)c1ccc(N2CCC(n3ccc(-c4nc5ccccc5c(=O)[nH]4)c3)CC2)cn1` [Compound 18]: 0.1 to 1 µM.
For the molecule `CCc1cnc(C2CCN(C3CCN(c4ccc(C(=O)NC)nc4)CC3)CC2)[nH]c1=O` [Compound 19], in test [2], the IC50 is 1 to 10 µM.
`CCc1cnc(C2CCN(C3CCC(F)(F)CC3)CC2)[nH]c1=O` [Compound 21]: the IC50 in test [2] was in the range of 1 to 10 µM.
As to `CCc1cnc(-c2ccn(C3CCN(c4ccc(C(=O)NC)nc4)CC3)c2)[nH]c1=O` [Compound 22], the IC50 in test [2] was 1 to 10 µM.
For the molecule `CCc1cnc(-c2ccn(C3CCN(c4ccc(C(=O)NC)nc4)CC3)n2)[nH]c1=O` [Compound 25], the IC50 in test [2] was in the range of 0.1 to 1 µM.
Consider `CNC(=O)c1ccc(N2CC(N3CCC(c4nc5ccccc5c(=O)[nH]4)CC3)C2)cn1` [Compound 28], for which the IC50 in test [2] lay in the range of 0.1 to 1 µM.
Regarding `CCc1cnc(C2CCN(CC3CCN(c4ccc(C(=O)NC)nc4)CC3)CC2)[nH]c1=O` [Compound 29], the IC50 in test [2] is 1 to 10 µM.
`CNC(=O)c1ccc(N2CCC(CN3CCC(c4ncc(C)c(=O)[nH]4)CC3)CC2)cn1` [Compound 30]: the IC50 in test [2] lay within 0.1 to 1 µM.
As to `CNC(=O)c1ccc(N2CCC(CN3CCC(c4ncc(C(F)(F)F)c(=O)[nH]4)CC3)CC2)cn1` [Compound 75], the Kd is 1 to 10 µM in test [1] (PARP1 HTRF) and greater than 10 µM in test [3]. In addition, the Selectivity result in test [1] is on record as “− (− indicates a value of less than 10)”.
As to `CNC(=O)c1ccc(N2CCC(N3CCCC(c4nc5ccccc5c(=O)[nH]4)C3)CC2)c(C)n1` (stereo not shown) [Compound 131], the IC50 in test [2] fell in the range of 1 to 10 µM.
